How the values were obtained:
[1] = biological target: T1, Procathepsin L (Homo sapiens, UniProt P07711); assay: Inhibition of human cathepsin L using Z-Phe-Arg-7-amido-4-methylcoumarin as substrate preincubated for 2 mins followed by substrate addition by fluorimetric assay
[2] = biological target: Cruzipain (Trypanosoma cruzi, UniProt P25779); assay: Inhibition of recombinant Trypanosoma cruzi cruzain using Z-Phe-Arg-7-amido-4-methylcoumarin as substrate preincubated for 2 mins followed by substrate addition by fluorimetric assay
Cruzipain, sequence (P25779 whole entry): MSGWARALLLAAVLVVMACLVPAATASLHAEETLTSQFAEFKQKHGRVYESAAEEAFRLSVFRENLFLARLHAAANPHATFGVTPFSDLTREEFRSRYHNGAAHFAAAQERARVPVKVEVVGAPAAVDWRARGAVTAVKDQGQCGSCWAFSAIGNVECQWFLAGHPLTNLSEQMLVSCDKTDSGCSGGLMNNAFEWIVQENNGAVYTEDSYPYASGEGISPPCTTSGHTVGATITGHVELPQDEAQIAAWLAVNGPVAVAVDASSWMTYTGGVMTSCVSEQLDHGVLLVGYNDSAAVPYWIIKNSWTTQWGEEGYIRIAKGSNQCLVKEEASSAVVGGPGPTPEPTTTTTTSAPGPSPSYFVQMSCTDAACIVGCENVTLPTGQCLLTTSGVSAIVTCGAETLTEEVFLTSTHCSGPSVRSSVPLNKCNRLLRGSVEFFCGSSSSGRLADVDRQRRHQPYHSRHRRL

[3] = Inhibition of Leishmania mexicana CPB delta CTE mutant using Z-Phe-Arg-7-amido-4-methylcoumarin as substrate preincubated for 2 mins followed by substrate addition by fluorimetric assay
[4] = system: Leishmania mexicana; assay: Inhibition of Leishmania mexicana CPB delta CTE mutant assessed as off rate constant
[5] = system: Leishmania mexicana; assay: Inhibition of Leishmania mexicana CPB delta CTE mutant assessed as on rate constant
[6] = biological target: T1, Procathepsin L; assay: Inhibition of human cathepsin L assessed as on rate constant
[7] = biological target: cathepsin L (Procathepsin L) (Homo sapiens, UniProt P07711); assay: Inhibition of human cathepsin L assessed as off rate constant; conditions: human cathepsin L enzyme, read-out: K
cathepsin L (Procathepsin L), sequence (P07711 whole entry): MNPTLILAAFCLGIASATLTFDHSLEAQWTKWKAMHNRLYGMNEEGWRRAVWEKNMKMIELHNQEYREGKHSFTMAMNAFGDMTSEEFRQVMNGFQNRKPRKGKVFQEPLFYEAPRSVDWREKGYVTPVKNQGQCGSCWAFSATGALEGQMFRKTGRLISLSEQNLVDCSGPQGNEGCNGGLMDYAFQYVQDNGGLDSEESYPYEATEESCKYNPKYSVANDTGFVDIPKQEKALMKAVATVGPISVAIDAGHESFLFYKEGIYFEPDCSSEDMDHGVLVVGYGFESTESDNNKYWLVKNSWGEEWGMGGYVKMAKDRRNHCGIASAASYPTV

[8] = biological target: Cruzipain (Trypanosoma cruzi) (UniProt P25779); assay: Inhibition of recombinant Trypanosoma cruzi cruzain assessed as on rate constant
Cruzipain (Trypanosoma cruzi), sequence (P25779 123-467 limits assumed): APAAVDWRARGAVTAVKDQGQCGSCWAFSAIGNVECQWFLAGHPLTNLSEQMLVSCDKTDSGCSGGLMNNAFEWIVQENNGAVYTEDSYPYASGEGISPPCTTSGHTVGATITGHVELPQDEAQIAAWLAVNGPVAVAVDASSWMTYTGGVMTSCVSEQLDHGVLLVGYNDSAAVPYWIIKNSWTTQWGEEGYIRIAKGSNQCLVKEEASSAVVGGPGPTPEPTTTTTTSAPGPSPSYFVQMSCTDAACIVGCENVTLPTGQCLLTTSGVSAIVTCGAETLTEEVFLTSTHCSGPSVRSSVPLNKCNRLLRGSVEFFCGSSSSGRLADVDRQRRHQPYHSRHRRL

[9] = biological target: Cruzipain (Trypanosoma cruzi) (UniProt P25779); assay: Inhibition of recombinant Trypanosoma cruzi cruzain assessed as off rate constant

T1 sequence (P07711 whole entry): as the sequence (P07711 whole entry) above

Compound | Ki [1] | Ki [2] | pKi [3] | also measured
CC(C)C[C@H](NC(=O)C1(c2ccccc2)CC1)C(=O)NC1(C#N)CC1 | 0.00501 µM | 0.0251 µM | 7.2 | 
N#CCNC(=O)[C@H](Cc1ccccc1)NC(=O)c1ccco1 | 0.501 µM |  | 6.3 | 
CC(C)C[C@H](NC(=O)C1(c2ccccc2)CCC1)C(=O)NC1(C#N)CC1 | 0.00501 µM | 0.02 µM | 7.6 | 
N#CC1(NC(=O)C2(NC(=O)c3ccccc3)CCCC2)CC1 | 3.98 µM | 12.6 µM | 5.2 | 
Cn1nc(C(C)(C)C)cc1C(=O)N[C@@H](Cc1ccccc1)C(=O)NCC#N | 0.00398 µM |  | 7.4 | 
N#CCNC(=O)[C@H](Cc1ccccc1)NC(=O)c1cncnc1 | 1 µM | 5.01 µM | 6.2 | 
CC(C)C[C@H](NC(=O)OC(C)(C)C)C(=O)NC1(C#N)CC1 | 0.631 µM |  | 6.3 | 
N#CCNC(=O)[C@H](Cc1ccccc1)NC(=O)c1ccccc1 | 0.126 µM |  | 6.6 | 
CC(C)(C)OC(=O)N[C@@H](Cc1cccc(Cl)c1)C(=O)NCC#N | 0.251 µM |  | 5.2 | 
N#CCNC(=O)[C@H](Cc1cccc(Cl)c1)NC(=O)c1ccccc1 | 0.02 µM |  | 5.2 | 
CC(C)C[C@H](NC(=O)c1cc(C(C)(C)C)nn1C)C(=O)NCC#N | 0.0251 µM |  | 7.6 | 
N#CCNC(=O)C1(NC(=O)c2ccccc2)CCCC1 | 10 µM |  | 4.3 | 
CC(C)C[C@H](NC(=O)C(F)(F)c1ccccc1)C(=O)NC1(C#N)CC1 | 0.0316 µM | 0.0631 µM | 6.8 | 
CC(C)C[C@H](NC(=O)c1ccccc1)C(=O)NC1(C#N)CC1 |  |  | 6.8 | 
Cn1nc(C(C)(C)C)cc1C(=O)N[C@@H](Cc1ccccc1)C(=O)NC1(C#N)CC1 | 0.00501 µM |  | 7.3 | 
N#CCNC(=O)[C@H](Cc1ccccc1)NC(=O)c1cncc(Br)c1 | 0.01 µM | 0.158 µM | 6.9 | 
N#CCNC(=O)[C@H](Cc1ccc(OC(=O)c2ccccc2)cc1)NC(=O)c1ccccc1 | 0.251 µM |  | 6.9 | 
CC(C)(C#N)NC(=O)[C@H](Cc1ccccc1)NC(=O)c1ccccc1 | 0.631 µM |  | 5.7 | 

Compound | Ki [1] | Ki [2] | pKi [3] | also measured
N#CCNC(=O)[C@H](Cc1ccccc1)NC(=O)c1cccs1 | 0.501 µM |  | 6.4 | 
CC(C)C[C@H](NC(=O)c1cc(C(C)(C)C)nn1C)C(=O)NC1(C#N)CC1 | 0.0126 µM |  | 8.3 | 
Cn1nc(C(C)(C)C)cc1C(=O)N[C@@H](Cc1cccc(Cl)c1)C(=O)NCC#N | 0.00126 µM |  | 6.6 | 
N#CCNC(=O)[C@H](Cc1ccccc1)NC(=O)OCc1ccccc1 | 0.126 µM |  | 6.6 | 
CC(C)C[C@H](NC(=O)Cc1ccccc1)C(=O)NC1(C#N)CC1 | 0.0631 µM | 0.0398 µM | 7.2 | 
CC[C@@H](C)[C@H](NC(=O)c1ccccc1)C(=O)NC1(C#N)CC1 | 3.16 µM | 25.1 µM | 5.5 | 
Cn1nc(C(F)(F)F)cc1C(=O)N[C@@H](Cc1ccccc1)C(=O)NCC#N | 0.0251 µM | 0.501 µM | 7 | 
CC(C)C[C@H](NC(=O)c1cc(C(C)(C)C)nn1C)C(=O)N(C)N(C)C#N | 0.000501 µM |  | 9.7 | K [4]: 0.04 10^-6/s; K [5]: 0.22 10^-6/M/s
CC(C)(C)OC(=O)N[C@@H](Cc1ccccc1)C(=O)NCC#N |  | 2.51 µM | 5.8 | 
N#CC1(NC(=O)[C@H](Cc2ccccc2)NC(=O)c2ccccc2)CC1 | 0.0501 µM |  | 6.8 | 
CC(C)C[C@H](NC(=O)C(C)(C)c1ccccc1)C(=O)NC1(C#N)CC1 | 0.0398 µM | 0.158 µM | 6.4 | 
N#CCNC(=O)[C@H](Cc1c[nH]c2ccccc12)NC(=O)c1ccccc1 | 0.0501 µM |  | 6.1 | 
CN(C#N)N(C)C(=O)[C@H](Cc1ccccc1)NC(=O)c1cc(C(C)(C)C)nn1C | 0.000126 µM |  | 9.7 | K [6]: 700000 M⁻¹ s⁻¹; koff [7]: 8e-08 s⁻¹; K [4]: 0.2 10^-6/s; K [8]: 7.7e+06 M⁻¹ s⁻¹; K [9]: 12 10^-6/s; K [5]: 1 10^-6/M/s
N#CCNC(=O)[C@H](Cc1ccccc1)NC(=O)c1cnccn1 | 1 µM | 6.31 µM | 6.2 | 
CC(C)C[C@H](NC(=O)OC(C)(C)C)C(=O)NCC#N | 2.51 µM |  | 5.8 | 
N#CCNC(=O)[C@H](Cc1ccccc1)NC(=O)c1c[nH]c(=O)[nH]c1=O | 1 µM | 1.26 µM | 6.5 | 
N#CCNC(=O)[C@H](Cc1ccc(O)cc1)NC(=O)c1ccccc1 | 0.0794 µM |  | 5.7 | 
N#CCNC(=O)[C@@H](Cc1ccccc1)NC(=O)c1ccccc1 | 1.58 µM | 6.31 µM | 5.9 | 

From ChEMBL document CHEMBL4699568, “Crystal structure of Leishmania mexicana cysteine protease B in complex with a high-affinity azadipeptide nitrile inhibitor” (Bioorg Med Chem, 2020)
